Test [1] has as its target human HSV DNA polymerase UL30 (Human herpesvirus 1 (strain 17) (HHV-1) (Human herpes simplex virus 1), UniProt P04293). Description: HSV polymerase biochemical assay (molecular beacon-based). A digest of the protocol: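 Full-length wild-type N-terminal MBP-fusion polymerases from sf9 cells were used at 100 pM (CMV) or 625 pM (HSV) in Tris pH 7.5, 10 mM MgCl2, and preincubated with inhibitor for 30 min at RT. Reactions with 1.25 uM each dNTP, 200 nM primer and 100 nM molecular beacon ran 60 min (CMV) or 20 min (HSV) at RT. Fluorescence was read at 480/535 nm and IC50 derived.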

For test [2], the system named is EBV (SNU-719 gastric carcinoma cell line latently infected with EBV). As to the kind of experiment: EBV qPCR assay (cellular herpesvirus replication). The format is cell-based. The conditions noted are these: human gammaherpesvirus 4; SNU-719 cells, TPA/NaB reactivation, qPCR after 72 hrs; n>3, value (+/- spread). Here is the method: For all viral assays, 10 mM DMSO stock compound solutions were serially diluted in DMSO at 3.16 fold dilutions in 96-well clear round bottom plates. Compounds were then diluted in assay media at 1:20 and subsequently 10 μL of these dilutions were added to cells for final compound concentrations ranging either from 0.0159 μM to 50 μM in 0.5% DMSO/assay media, or from 0.00318 to 10 μM in 0.5% DMSO/assay media.
EBV qPCR assay: The assay uses the SNU-719 gastric carcinoma cell line which is latently infected with EBV. Upon reactivation with chemical reagents, EBV DNA copy number was measured by qPCR. Viral replication in the presence or absence of compounds was measured according to the following procedure: SNU-719 cells were plated at 2×10^4 cells/well in 96-well clear bottom plates, black in 80 μL/well of assay media: 2% FBS in RPMI 1640 (ATCC cat # 30-2001). […]
qPCR reactions were carried out in a total reaction volume of 20 μL, using the QuantiFast® Multiplex PCR kit (Qiagen cat #204656). Eighteen μL of qPCR master mix (10 μL of 2× QuantiFast® Multiplex PCR Master Mix, 1 μL of 20× Primer/Probe Mix specific to housekeeping gene, 1 μL of 20× Primer/Probe Mix specific to viral gene, 6 μL of H2O) was distributed into each well of a 384 well plate. […]
Relative quantification was calculated with the ΔΔCT Method, and then converted into percent inhibitions. […]
(Real-time PCR tracks product formation cycle by cycle.)

The term IC50 denotes the concentration that inhibits the measured activity by half. Low values mean greater potency in that assay, high ones weaker potency in that assay. Broadly, the EC50 is the concentration giving half of the maximal effect. Lower therefore signals greater potency.

In the case of `N#Cc1ccc(CNC(=O)c2ccc3n(c2=O)CCN(CC2(S(=O)(=O)C4CC4)CC2)C3=O)cc1` [Example 1, N-(4-cyanobenzyl)-2-((1-(cyclopropylsulfonyl)cyclopropyl)methyl)-1,6-dioxo-2,3,4,6-tetrahydro-1H-pyrido[1,2-a]pyrazine-7-carboxamide], the IC50 in test [1] amounted to 27.3 nM. The EC50 in test [2] was 12 nM.

Values taken from patent US12466821B2 (Novartis AG, priority 2018, dated 2025).
